Where two headings read alike, the source gives them in different places.
What was measured:
[1] = tested on: Pyricularia oryzae Carvara KA301; assay: whole plant or invertebrate; format: in vivo
Botrytis cinerae = assay: Fungicidal activity against cucumber gray mold rot (CGM) disease, control value; format: in vivo; conditions: for pest or weed control at 100 ppm: Botrytis, read-out: CGM control value (C.V.)
Protocol: Botrytis cinerae, which was isolated from cucumber infected thereby, was inoculated on a potato agar medium (PEC) and cultured under a 12L/12D cycle at 25° C. for 15 days to form spore. The spores were scraped, filtered through a gauze and then suspended in Potato Dextrose broth at a concentration of 1×10^6 spore/ml. The spore suspension was sprayed on a cucumber plant having one leaf. The cucumber plant was held in a humidified room at 20° C. for 3 days. L.A. on a leaf was measured to calculate a C.V.

Phytophthora infestans = assay: whole plant or invertebrate; format: in vivo
Puccinia recondita = assay: Fungicidal activity against wheat leaf rust (WLR) disease, control value; format: in vivo
Erysiphae graminis = assay: Fungicidal activity against barley powdery mildew (BPM) disease, control value; format: in vivo
Rhizoctonia solani AG-1 = assay: Fungicidal activity against rice sheath blight (RSB) disease, control value
[2] = Pyricularia oryzae, read-out: RCB control value (C.V.)
[3] = Phytophthora infestans, in Solanum lycopersicum, read-out: TLB control value (C.V.)
[4] = Rhizoctonia solani, AG1, in Oryza sativa, read-out: RSB control value (C.V.)
[5] = 100 ppm, cucumber gray mold rot

Compound: CCOc1cc(C=C(Cl)Cl)ccc1OCc1ccccc1/C(=N\OC)C(=O)NC [Example 60, (E)-2-(2-((4-(2,2-dichlorovinyl)-2-ethoxyphenoxy)methyl)phenyl)-2-methoxyimino-N-methylacetamide]
- pest or weed control at 2 ppm [1, 2]: 80%
- pest or weed control at 10 ppm [1, 2]: 96%
- pest or weed control at 50 ppm [1, 2]: 100%
- pest or weed control at 100 ppm [1, 2]: 100%
- pest or weed control at 100 ppm (Botrytis cinerae; 100 ppm): 45%
- pest or weed control at 2 ppm (Phytophthora infestans; [3]): 70%
- pest or weed control at 10 ppm (Phytophthora infestans; [3]): 92%
- pest or weed control at 50 ppm (Phytophthora infestans; [3]): 95%
- pest or weed control at 100 ppm (Phytophthora infestans; [3]): 100%
- pest or weed control at 2 ppm (Puccinia recondita; Puccinia recondita, 2 ppm, read-out: WLR control value (C.V.)): 95%
- pest or weed control at 10 ppm (Puccinia recondita; Puccinia recondita, 10 ppm, read-out: WLR control value (C.V.)): 100%
- pest or weed control at 50 ppm (Puccinia recondita; Puccinia recondita, 50 ppm, read-out: WLR control value (C.V.)): 100%
- pest or weed control at 100 ppm (Puccinia recondita; Puccinia recondita, 100 ppm, read-out: WLR control value (C.V.)): 100%
- pest or weed control at 2 ppm (Erysiphae graminis; 168 h, 2 ppm, read-out: BPM control value (C.V.)): 95%
- pest or weed control at 10 ppm (Erysiphae graminis; 168 h, 10 ppm, read-out: BPM control value (C.V.)): 98%
- pest or weed control at 50 ppm (Erysiphae graminis; 168 h, 50 ppm, read-out: BPM control value (C.V.)): 100%
- pest or weed control at 100 ppm (Erysiphae graminis; 168 h, 100 ppm, read-out: BPM control value (C.V.)): 100%
- pest or weed control at 2 ppm (Rhizoctonia solani AG-1; [4]): 98%
- pest or weed control at 10 ppm (Rhizoctonia solani AG-1; [4]): 100%
- pest or weed control at 50 ppm (Rhizoctonia solani AG-1; [4]): 100%
- pest or weed control at 100 ppm (Rhizoctonia solani AG-1; [4]): 100%

Compound: CO/N=C(/C(=O)OC)c1ccccc1COc1cccc(C=C(F)Cl)c1 [Example 11, methyl-(2E)-2-(2-((3-(2-chloro-2-fluorovinyl)phenoxy)methyl)phenyl)-2-methoxyiminoacetate]
- pest or weed control at 50 ppm [1, 2]: 70%
- pest or weed control at 100 ppm [1, 2]: 95%
- pest or weed control at 100 ppm (Botrytis cinerae; [5]): 43%
- pest or weed control at 100 ppm (Phytophthora infestans; [3]): 60%
- pest or weed control at 10 ppm (Puccinia recondita; 10 ppm, wheat leaf rust, read-out: WLR control value (C.V.)): 40%
- pest or weed control at 50 ppm (Puccinia recondita; 50 ppm, wheat leaf rust, read-out: WLR control value (C.V.)): 90%
- pest or weed control at 100 ppm (Puccinia recondita; 100 ppm, wheat leaf rust, read-out: WLR control value (C.V.)): 100%
- pest or weed control at 50 ppm (Erysiphae graminis; Hordeum vulgare, 168 h, 50 ppm, barley powdery mildew, read-out: BPM control value (C.V.)): 60%
- pest or weed control at 100 ppm (Erysiphae graminis; Hordeum vulgare, 168 h, 100 ppm, barley powdery mildew, read-out: BPM control value (C.V.)): 90%
- pest or weed control at 100 ppm (Rhizoctonia solani AG-1; [4]): 30%

Compound: CO/C=C(/C(=O)OC)c1ccccc1Oc1cc(Oc2ccccc2C#N)ncn1 [Azoxystrobin, reference compound]
- RCB control value (C.V.) ([1]; 0.4 ppm): 30%
- RCB control value (C.V.) ([1]; 2 ppm): 90%
- RCB control value (C.V.) ([1]; 10 ppm): 100%
- RCB control value (C.V.) ([1]; 50 ppm): 100%
- CGM control value (C.V.) (Botrytis cinerae; 50 ppm): 40%
- TLB control value (C.V.) (Phytophthora infestans; 0.4 ppm): 50%
- TLB control value (C.V.) (Phytophthora infestans; 2 ppm): 90%
- TLB control value (C.V.) (Phytophthora infestans; 10 ppm): 98%
- TLB control value (C.V.) (Phytophthora infestans; 50 ppm): 100%
- WLR control value (C.V.) (Puccinia recondita; 0.4 ppm): 95%
- WLR control value (C.V.) (Puccinia recondita; 2 ppm): 100%
- WLR control value (C.V.) (Puccinia recondita; 10 ppm): 100%
- WLR control value (C.V.) (Puccinia recondita; 50 ppm): 100%
- BPM control value (C.V.) (Erysiphae graminis; 0.4 ppm): 95%
- BPM control value (C.V.) (Erysiphae graminis; 2 ppm): 100%
- BPM control value (C.V.) (Erysiphae graminis; 10 ppm): 100%
- BPM control value (C.V.) (Erysiphae graminis; 50 ppm): 100%
- RSB control value (C.V.) (Rhizoctonia solani AG-1; 0.4 ppm): 67%
- RSB control value (C.V.) (Rhizoctonia solani AG-1; 2 ppm): 98%
- RSB control value (C.V.) (Rhizoctonia solani AG-1; 10 ppm): 100%
- RSB control value (C.V.) (Rhizoctonia solani AG-1; 50 ppm): 100%

Compound: CO/N=C(/C(=O)OC)c1ccccc1CON=C(C)c1ccc(C=C(Cl)Br)cc1 [Example 37, methyl-(E)-2-[[[[[2-[4-(2-bromo-2-chlorovinyl)phenyl](1-methyl)methylidene]amino]oxy]methyl]phenyl]-2-methoxyiminoacetate]
- RCB control value (C.V.) ([1]; 2 ppm, rice blast): 75%
- RCB control value (C.V.) ([1]; 10 ppm, rice blast): 90%
- RCB control value (C.V.) ([1]; 50 ppm, rice blast): 100%
- RCB control value (C.V.) ([1]; 100 ppm, rice blast): 100%
- CGM control value (C.V.) (Botrytis cinerae; [5]): 50%
- TLB control value (C.V.) (Phytophthora infestans; 10 ppm, tomato late blight): 10%
- TLB control value (C.V.) (Phytophthora infestans; 50 ppm, tomato late blight): 90%
- TLB control value (C.V.) (Phytophthora infestans; 100 ppm, tomato late blight): 100%
- WLR control value (C.V.) (Puccinia recondita; 2 ppm, wheat leaf rust): 100%
- WLR control value (C.V.) (Puccinia recondita; 10 ppm, wheat leaf rust): 100%
- WLR control value (C.V.) (Puccinia recondita; 50 ppm, wheat leaf rust): 100%
- WLR control value (C.V.) (Puccinia recondita; 100 ppm, wheat leaf rust): 100%
- BPM control value (C.V.) (Erysiphae graminis; 2 ppm, barley powdery mildew): 35%
- BPM control value (C.V.) (Erysiphae graminis; 10 ppm, barley powdery mildew): 90%
- BPM control value (C.V.) (Erysiphae graminis; 50 ppm, barley powdery mildew): 93%
- BPM control value (C.V.) (Erysiphae graminis; 100 ppm, barley powdery mildew): 95%
- RSB control value (C.V.) (Rhizoctonia solani AG-1; 100 ppm, rice sheath blight): 90%

Compound: CO/N=C(/C(=O)OC)c1ccccc1CON=C(C)c1cccc(C=C(F)F)c1 [Example 27, methyl-(E)-2-[[[[[2-[3-(2,2-difluorovinyl)phenyl](1-methyl)methylidene]amino]oxy]methyl]phenyl]-2-methoxyiminoacetate]
- RCB control value (C.V.) ([1]; 2 ppm, rice blast): 90%
- RCB control value (C.V.) ([1]; 10 ppm, rice blast): 97%
- RCB control value (C.V.) ([1]; 50 ppm, rice blast): 100%
- RCB control value (C.V.) ([1]; 100 ppm, rice blast): 100%
- CGM control value (C.V.) (Botrytis cinerae; [5]): 55%
- TLB control value (C.V.) (Phytophthora infestans; 2 ppm, tomato late blight): 98%
- TLB control value (C.V.) (Phytophthora infestans; 10 ppm, tomato late blight): 100%
- TLB control value (C.V.) (Phytophthora infestans; 50 ppm, tomato late blight): 100%
- TLB control value (C.V.) (Phytophthora infestans; 100 ppm, tomato late blight): 100%
- WLR control value (C.V.) (Puccinia recondita; 2 ppm, wheat leaf rust): 100%
- WLR control value (C.V.) (Puccinia recondita; 10 ppm, wheat leaf rust): 100%
- WLR control value (C.V.) (Puccinia recondita; 50 ppm, wheat leaf rust): 100%
- WLR control value (C.V.) (Puccinia recondita; 100 ppm, wheat leaf rust): 100%
- BPM control value (C.V.) (Erysiphae graminis; 2 ppm, barley powdery mildew): 98%
- BPM control value (C.V.) (Erysiphae graminis; 10 ppm, barley powdery mildew): 100%
- BPM control value (C.V.) (Erysiphae graminis; 50 ppm, barley powdery mildew): 100%
- BPM control value (C.V.) (Erysiphae graminis; 100 ppm, barley powdery mildew): 100%
- RSB control value (C.V.) (Rhizoctonia solani AG-1; 100 ppm, rice sheath blight): 0%
